From patent US20010038822A1, “Melanotropin analogs for potential radiopharmaceuticals for diagnosis and treatment of melanoma” (priority 1998, published 2001)
Like-named read-outs stand apart in the source and are kept apart here. One block for each compound: values may come before it. Positions of bridges follow the written chain, without caps; N, C: chain ends. Non-standard residues stand in square brackets, D forms with d. Residues, ends and D or L forms follow the SMILES beside them.

Columns and labels:
[1] = tested on: B16F1 murine melanoma cells; assay type: cell-based
Procedure: Peptide bioactivity was determined by measuring melanin released into cell culture media in an in vitro assay using B16F1 murine melanoma cells (Siegrist, W., 1986). Cells were incubated with various concentrations of peptide and assayed for melanin production by measuring the absorbance of the culture media at 405 nm. Absorbance values were compared to a standard curve obtained using synthetic melanin from Sigma. The standard curve was linear over the experimental range of absorbance values.

[2] = target: T1, α-MSH receptor on B16-F1 murine melanoma cells (Mus musculus, UniProt Q01727); test: Competitive receptor binding assay with ^125I-[Nle^4, D-Phe^7]-α-MSH
T1 construct: endogenous in cells; host or cells: B16-F1 murine melanoma cells
Procedure: Quantitative receptor binding assays were carried out following a previously described method (Siegrist W., 1988; Sahm, U. G., 1994). Cells were seeded at a density of 5×10^5 cells per well in 24 well tissue culture plates and exposed to varying concentrations of peptides on 0.5 mL of binding media (25 mM HEPES/NaOH pH=7.4, 0.2% BSA, 0.3 mM 1,10-phenanthroline, and approximately 100,000 CPM of ^125I-[Nle^4, D-Phe^7]-α-MSH) (36) at 4° C. for 8 hours. The cells were rinsed with PBS, lysed with 1 M NaOH and counted in a 1275 minigamma gamma counter from LKB Wallac.

[3] = Stabilities of tracer level complexes under challenge (10 mM cysteine / 0.05M phosphate); assay type: physicochemical
Procedure: ^99mTcO4^− was obtained from a ^99Mo/^99mTc generator produced by Mallinckrodt, Inc. ^188Re was obtained from a ^188W/^188Re generator produced by the University of Missouri research reactor. Radiolabeled peptides were prepared by substitution onto either ^99mTc- or ^188Re-glucoheptonate. For ^188Re complexes, 500 μL of generator eluant was added to a tube containing 50 mg Na-glucoheptonate and 10 mg SnCl2.2H2O dissolved in 200 μL N2-purged 5% disodium-EDTA and heated at 70-80° C. for 0.5 hour. 50 μL of a 1 mg/mL peptide solution was then added, the pH was adjusted to 7-8 with 0.5 N NaOH, and the mixture was allowed to incubate for 90 minutes. at 70-80° C. Syntheses of ^99mTc-labeled peptides differed only in that they were carried out at 25° C. using a 10-fold lower concentration of SnCl2.2H2O.

T1 sequence (Q01727 whole entry): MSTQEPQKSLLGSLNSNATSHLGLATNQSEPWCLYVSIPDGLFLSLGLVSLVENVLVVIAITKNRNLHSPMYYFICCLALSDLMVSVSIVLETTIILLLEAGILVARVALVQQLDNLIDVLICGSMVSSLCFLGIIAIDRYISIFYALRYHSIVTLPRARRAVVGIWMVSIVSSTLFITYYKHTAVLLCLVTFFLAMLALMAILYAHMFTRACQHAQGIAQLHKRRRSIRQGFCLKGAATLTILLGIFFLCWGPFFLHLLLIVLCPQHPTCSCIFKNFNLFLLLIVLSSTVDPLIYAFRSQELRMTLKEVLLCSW

EC50 ([1]; B16-F1 murine melanoma cells, read-out: EC50 melanin synthesis): 0.035 nM
receptor binding affinity higher than that of ReMSH [2]: approximately 25 fold
Ki ([2]; read-out: receptor binding affinity): 2.9 nM
Compound: rhenium complex of NAc-Cys-Cys-Glu-His-D-Phe-Arg-Trp-Cys-Lys-Pro-Val-NH2, APOMSH analog with additional N-terminal Cys [ReCCMSH]
ability to stimulate melanin production ([1]; compared with APOMSH): almost identical to APOMSH

Stability of tracer level complex ([3]; 10 mM Cysteine challenge, 4 hrs): 48.9%
Stability of tracer level complex ([3]; 10 mM Cysteine challenge, 24 hrs): 34.0%
Stability of tracer level complex ([3]; 0.05M Phosphate challenge, 4 hrs): 90.3%
Stability of tracer level complex ([3]; 0.05M Phosphate challenge, 24 hrs): 66.4%
half-life ([3]; 0.05M phosphate with 10 mM cysteine, in competition with 10 mM free cysteine, read-out: t½ (converted)): ~4 h
Compound: CC(=O)N[C@@H](CS)C(=O)N[C@@H](CCC(=O)O)C(=O)N[C@@H](Cc1c[nH]cn1)C(=O)N[C@H](Cc1ccccc1)C(=O)N[C@@H](CCCNC(=N)N)C(=O)N[C@@H](Cc1c[nH]c2ccccc12)C(=O)N[C@@H](CS)C(=O)N[C@@H](CCCCN)C(=O)N1CCC[C@H]1C(=O)N[C@H](C(N)=O)C(C)C (188Re complex, metal not drawn) [^188ReMSH] (Ac-CEH[dF]RWCKPV-NH2)

EC50 [1]: 0.026 nM
Ki ([2]; B16-F1 murine melanoma cells, read-out: Ki): 0.68 nM
Compound: CC(=O)N[C@H]1CSSC[C@@H](C(=O)N[C@@H](CCCCN)C(=O)N2CCC[C@H]2C(=O)N[C@H](C(N)=O)C(C)C)NC(=O)[C@H](Cc2c[nH]c3ccccc23)NC(=O)[C@H](CCCNC(=N)N)NC(=O)[C@@H](Cc2ccccc2)NC(=O)[C@H](Cc2c[nH]cn2)NC(=O)[C@H](CCC(=O)O)NC1=O [APOMSH, NA-Cys-Glu-His-D-Phe-Arg-Trp-Cys-Lys-Pro-Val-NH2, reference compound] (Ac-CEH[dF]RWCKPV-NH2; disulfide 1-7)
